Consider one compound from ChEMBL document CHEMBL5154815, “A Series of Substituted Bis-Aminotriazines Are Activators of the Natriuretic Peptide Receptor C” (J Med Chem, 2022).

Series [1] addresses T1, Atrial natriuretic peptide receptor 3 (Rattus norvegicus, UniProt P41740).
T1 sequence (P41740 whole entry): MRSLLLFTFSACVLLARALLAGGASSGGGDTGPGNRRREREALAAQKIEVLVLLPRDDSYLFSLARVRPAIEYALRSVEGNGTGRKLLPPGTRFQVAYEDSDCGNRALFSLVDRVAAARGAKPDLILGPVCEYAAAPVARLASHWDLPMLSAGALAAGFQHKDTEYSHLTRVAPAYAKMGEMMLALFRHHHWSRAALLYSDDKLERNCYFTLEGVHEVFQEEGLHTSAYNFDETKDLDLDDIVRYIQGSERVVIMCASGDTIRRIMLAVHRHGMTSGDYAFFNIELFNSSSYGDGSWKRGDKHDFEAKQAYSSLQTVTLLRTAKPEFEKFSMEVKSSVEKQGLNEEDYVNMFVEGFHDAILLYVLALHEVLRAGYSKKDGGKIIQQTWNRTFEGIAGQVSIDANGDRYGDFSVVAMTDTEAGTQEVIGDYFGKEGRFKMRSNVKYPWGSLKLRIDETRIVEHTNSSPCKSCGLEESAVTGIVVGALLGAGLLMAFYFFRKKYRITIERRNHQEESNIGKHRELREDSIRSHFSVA
The series is described as follows: Agonist activity at NPRC in rat small mesenteric arteries assessed as vasorelaxation preincubated with M372049 for 15 mins followed by compound treatment by Organ bath assay. It is filed as tissue-based, Artery.

Series [2] has as its target T2, Atrial natriuretic peptide receptor 3 (Mus musculus, UniProt P70180).
T2 sequence (P70180 whole entry): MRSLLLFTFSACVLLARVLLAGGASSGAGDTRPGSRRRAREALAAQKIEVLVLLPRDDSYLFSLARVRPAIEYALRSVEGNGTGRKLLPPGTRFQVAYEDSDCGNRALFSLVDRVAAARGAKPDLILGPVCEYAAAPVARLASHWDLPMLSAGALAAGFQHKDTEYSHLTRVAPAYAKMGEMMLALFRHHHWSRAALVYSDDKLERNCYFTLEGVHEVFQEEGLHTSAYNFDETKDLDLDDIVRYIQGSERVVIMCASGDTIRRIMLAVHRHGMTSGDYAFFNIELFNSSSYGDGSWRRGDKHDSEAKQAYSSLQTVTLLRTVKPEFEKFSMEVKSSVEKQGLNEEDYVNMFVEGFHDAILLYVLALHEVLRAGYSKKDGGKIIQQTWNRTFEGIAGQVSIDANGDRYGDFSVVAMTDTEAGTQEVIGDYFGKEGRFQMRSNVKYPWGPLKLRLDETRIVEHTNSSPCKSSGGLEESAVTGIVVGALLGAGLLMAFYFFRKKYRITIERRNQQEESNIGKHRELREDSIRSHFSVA
The series is described as follows: Agonist activity at NPRC in knock out mouse mesenteric arteries assessed as vasorelaxation by Organ bath assay. It is filed as tissue-based, Artery.

The nature of series [3]: Stability of compound in pooled human plasma assessed as half life measured upto 120 mins by LC/MS/MS analysis. Particulars: 2 h.
The target of another series is T3, Cytochrome P450 1A2 (Homo sapiens, UniProt P05177).
T3 sequence (P05177 whole entry): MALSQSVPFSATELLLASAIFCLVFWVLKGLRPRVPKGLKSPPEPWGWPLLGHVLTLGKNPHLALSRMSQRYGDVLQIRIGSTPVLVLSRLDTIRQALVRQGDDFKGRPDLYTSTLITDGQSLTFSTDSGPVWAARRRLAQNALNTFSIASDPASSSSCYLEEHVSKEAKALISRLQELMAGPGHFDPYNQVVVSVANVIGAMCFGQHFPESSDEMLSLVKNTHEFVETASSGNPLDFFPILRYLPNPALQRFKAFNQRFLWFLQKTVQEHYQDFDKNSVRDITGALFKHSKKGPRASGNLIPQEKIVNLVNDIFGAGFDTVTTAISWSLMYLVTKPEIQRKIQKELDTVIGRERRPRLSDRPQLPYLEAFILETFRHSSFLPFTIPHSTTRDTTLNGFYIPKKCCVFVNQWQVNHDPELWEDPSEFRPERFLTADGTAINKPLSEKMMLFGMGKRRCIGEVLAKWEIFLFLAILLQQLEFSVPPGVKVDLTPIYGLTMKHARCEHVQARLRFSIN
The series is described as follows: Inhibition of CYP1A2 in human liver microsomes using phenacetin as substrate preincubated for 10 mins followed by NADPH addition and measured after 10 mins by LC/MS/MS analysis. In general terms: Liver microsomes are a subcellular fraction often used to study metabolism.

Another series deals with Cytochrome P450 3A4 (Homo sapiens, UniProt P08684). Briefly: Inhibition of CYP3A4 in human liver microsomes using testosterone as a substrate preincubated for 10 mins followed by NADPH addition and measured after 10 mins by LC/MS/MS analysis.
Sequence of Cytochrome P450 3A4 (P08684 whole entry): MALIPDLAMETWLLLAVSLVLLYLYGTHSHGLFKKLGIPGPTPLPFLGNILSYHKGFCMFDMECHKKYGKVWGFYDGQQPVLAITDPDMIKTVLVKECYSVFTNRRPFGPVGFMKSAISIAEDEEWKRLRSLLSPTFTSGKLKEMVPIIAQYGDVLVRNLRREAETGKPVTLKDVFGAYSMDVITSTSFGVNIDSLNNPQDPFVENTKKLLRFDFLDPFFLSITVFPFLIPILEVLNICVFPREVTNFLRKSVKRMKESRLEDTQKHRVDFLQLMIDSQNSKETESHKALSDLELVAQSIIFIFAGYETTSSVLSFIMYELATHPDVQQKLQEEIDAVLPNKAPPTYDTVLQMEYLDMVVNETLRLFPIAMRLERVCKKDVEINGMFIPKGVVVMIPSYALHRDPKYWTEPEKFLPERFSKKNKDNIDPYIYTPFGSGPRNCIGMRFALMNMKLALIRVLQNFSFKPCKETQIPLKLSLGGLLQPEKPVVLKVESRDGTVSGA
Series [4] can be described thus: Mean residence time (0 to infinity) in fasted C57BL/6 mouse at 3 mg/kg, iv by LC-MS/MS analysis. To be noted: in vivo.
Series [5] is described as follows: Mean residence time (0 to infinity) in fasted C57BL/6 mouse at 10 mg/kg, po by LC-MS/MS analysis. Particulars: in vivo.
The target of series [6] is T4, Atrial natriuretic peptide receptor 3 (Rattus norvegicus) (UniProt P41740).
T4 sequence (whole entry): T1 sequence (P41740 whole entry)
The series is described as follows: Agonist activity at NPRC in rat aorta assessed as inhibition of cANF4-23 induced vasorelaxation in presence of osteocrin by Organ bath assay. It is filed as tissue-based. Particulars: filed as agonist.

Series [7] deals with T5, Atrial natriuretic peptide receptor 3 (Homo sapiens, UniProt P17342).
T5 sequence (P17342 whole entry): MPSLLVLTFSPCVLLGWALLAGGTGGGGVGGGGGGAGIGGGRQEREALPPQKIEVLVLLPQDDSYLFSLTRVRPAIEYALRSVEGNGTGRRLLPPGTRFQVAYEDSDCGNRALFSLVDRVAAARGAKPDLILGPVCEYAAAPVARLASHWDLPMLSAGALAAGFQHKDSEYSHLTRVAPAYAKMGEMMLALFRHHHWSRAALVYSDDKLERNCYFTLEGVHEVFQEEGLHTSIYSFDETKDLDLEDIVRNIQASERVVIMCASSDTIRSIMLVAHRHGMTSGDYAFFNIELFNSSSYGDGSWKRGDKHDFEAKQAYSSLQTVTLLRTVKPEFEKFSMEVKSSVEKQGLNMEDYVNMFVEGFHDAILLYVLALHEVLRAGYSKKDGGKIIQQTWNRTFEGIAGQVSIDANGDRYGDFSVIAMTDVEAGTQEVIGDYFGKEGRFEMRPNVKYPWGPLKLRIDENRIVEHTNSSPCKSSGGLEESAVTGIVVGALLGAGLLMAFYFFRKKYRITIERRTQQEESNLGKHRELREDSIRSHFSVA
The series is described as follows: Binding affinity to CM5 sensor chip immobilized human NPR-C (27 to 541 residues) assessed as dissociation constant by surface plasmon resonance analysis. Background: In SPR one partner is held on a chip, and binding of the other changes the refractive index at the surface.

Calls of active or inactive are those of the source. No cut-off for these calls is given here. A value given as a limit tells only on which side of the number the result lay.

Turning to `CC(=O)Nc1ccc(Nc2ncnc(NCCC(=O)OC(C)(C)C)n2)cc1`, the values for the concentration for a half-maximal effect (EC50) in series [1] and in [2] were 8.64 µM and 10.1 µM, respectively. In [3], the t1/2 is given as over 120 min. Besides, the half-maximal inhibitory concentration (IC50) against Cytochrome P450 1A2 and against Cytochrome P450 3A4 was over 50 µM throughout. For the same compound, the MRT inf in series [4] came out at 15.7 min; in [5], 1.33 h. Also, the result in [6] was Active. Besides, the Kd in [7] worked out at 146 µM.

In general, EC50 refers to the concentration giving half of the maximal effect. Usually IC50 stands for the concentration that inhibits the measured activity by half. The low end stands for higher potency, the high end for lower potency. What is called MRT inf is a mean duration of stay, worked out from the concentration-time curve. As a reminder, the Kd is the constant that tells how readily two partners part at equilibrium.
